Square brackets hold non-standard residues; d marks the D form. Peptide text beside a SMILES is read from it. * marks the point of attachment. Hydrocinnamoyl = O=C(CCc1ccccc1)*; Tic = O=C(O)[C@@H]1Cc2ccccc2CN1; NMeL = CN[C@@H](CC(C)C)C(=O)O
Key:
[1] = Plasma stability, rat plasma; assay type: in vitro ADME; conditions: 37° C., time points 0 minute, 1, 2 and 4 hours, LC-MS/MS, read-out: Rat plasma (T1/2 (h)) (converted)
Procedure: (§1) 1. Preparation of 50 mM Phosphate Buffer (50 mM Sodium Phosphate and 70 mM NaCl):
(§2) 5.750 g of Na2HPO4, 1.141 g of NaH2PO4 and 4.095 g of NaCl (Shanghai Titan) were weighed and dissolved in 1000 mL of ultrapure water and the pH was adjusted to 7.4. The prepared phosphate buffer was stored in the refrigerator at 4° C., valid for one week.
(§3) 2. Preparation of Compound Stock Solution:
(§4) 1) 5 mg/mL test compound: 5 mg of compound was weighed and dissolved in 1 mL of DMSO.
(§5) 2) 20 mM control: 2.728 mg of nococaine was dissolved in 0.5 mL of DMSO. 3.878 mg of fenfluramide was dissolved in 0.5 mL of DMSO (Amresco).
(§6) 3. Preparation of Experimental Plasma:
(§7) The frozen plasma (human: Shanghai ChemPartner, Rat, Mouse: Shanghai Xipuer-Beikai, Dog, Monkey: Suzhou Xishan Zhongke) was taken out from the −80° C. refrigerator, immediately placed in a 37° C. water bath, and thawn with gentle shaking. The thawed plasma was poured into a centrifuge tube, and centrifuged at 3000 rpm for 8 minutes. The supernatant was collected for the experiment. The pH of the plasma was measured with a pH meter (METTLER TOLEDO), and only the plasma with a pH between 7.4 and 8 was used for the experiment. The plasma was placed on an ice bath for later use.
4. Preparation of the Dosing Solution: […]

[2] = Plasma stability, human plasma; assay type: in vitro ADME; conditions: 37° C., time points 0 minute, 1, 2 and 4 hours, LC-MS/MS, read-out: Human plasma (T1/2 (h)) (converted)
Procedure: as §1, §2, §3, §4, §5, §6, §7
4. Preparation of the Dosing Solution:
1) 125 μg/mL test compound solution: 5 μL of 5 mg/mL test compound (see step 2) was added to 195 μL DMSO; 500 μM control solution: 20 mM control stock solution (see step 2) was added to 195 μL DMSO.
2) 0.5% BSA phosphate buffer solution: 0.05 g of BSA was added to 10 mL of phosphate buffer (see step 1).
3) 5 μg/mL test compound dosing solution: 40 μL of 125 μg/mL test compound solution was added to 960 μL of 0.5% BSA phosphate buffer solution, shaken and mixed evenly, and the dosing solution was placed in a 37° C. water bath and preheated for 5 minutes.
20 μM control dosing solution: 40 μL of 500 μM control solution was added to 960 μL of 0.5% BSA phosphate buffer solution, shaken and mixed evenly, and the dosing solution was placed in a 37° C. water bath and preheated for 5 minutes.
5. 10 μL of 5 μg/mL test compound and 20 μM control solution were added to the wells of the 96-well plate set at different time points (0 minute, 1 hour, 2 hours and 4 hours). The number of duplicate samples was 3.
6. 500 μL of ACN (IS) containing 5% FA was added to the wells set at 0 minute. 90 μL of plasma was then added thereto, mixed evenly, sealed with the film and stored at 4° C. (the number of duplicates was 3).
7. 90 μL of plasma was added to the wells set at 1 hour, 2 hours and 4 hours (the number of replicates was 3), followed by timing (the final concentration of the test compound was 500 ng/mL, and that of the control was 2 μM).
9. All samples (0 minutes, 1 hour, 2 hours, and 4 hours) at different time points on the 96-well plate were placed on a shaker (IKA, MTS 2/4) and shaken at 600 rpm for 60 minutes. The samples were then centrifuged for 15 minutes on a centrifuge machine (Thermo Multifuge×3R) at 5594×g.
10. 150 μL of the supernatant was taken out from the centrifuged sample and sent to LC-MS/MS for analysis (conventional peptide LC-MS/MS analysis).

Structure (SMILES) | half-life at 500 ng/mL [1] [h] | half-life at 500 ng/mL [2] [h]
CC(C)C[C@H](NC(=O)[C@H](Cc1ccccc1)NC(=O)[C@H](N)Cc1ccc(O)cc1)C(=O)N1CCC[C@H]1C(=O)N[C@H](CO)C(=O)N[C@@H](CCC(N)=O)C(=O)N[C@@H](Cc1ccccc1)C(=O)N[C@H](C)C(=O)N1Cc2ccccc2C[C@H]1C(=O)N[C@@H](CO)C(=O)O [YW-3, (D-Tyr)-Phe-Leu-Pro-(D-Ser)-Gln-Phe-(D-Ala)-Tic-Ser, reference compound] (H-[dY]FLP[dS]QF[dA][Tic]S-OH) | 11.7 | 12.8
CC(C)C[C@@H](C(=O)N1CCC[C@H]1C(=O)N[C@H](CO)C(=O)N[C@@H](CCC(N)=O)C(=O)N[C@@H](Cc1ccccc1)C(=O)N[C@H](C)C(=O)N1Cc2ccccc2C[C@H]1C(=O)N[C@@H](CO)C(=O)O)N(C)C(=O)[C@H](Cc1ccccc1)NC(=O)[C@@H](Cc1ccc(O)cc1)NC(=O)CCc1ccccc1 [YW-111, 3-phenylpropanoyl-(D-Tyr)-Phe-(NMe-Leu)-Pro-(D-Ser)-Gln-Phe-(D-Ala)-Tic-Ser-OH] (Hydrocinnamoyl-[dY]F[NMeL]P[dS]QF[dA][Tic]S-OH) | > 71 | 71
